System: Colo205 human colon carcinoma cell line
Test: In vitro tumor cell proliferation assay (MTS, CellTiter 96 Aqueous One Solution)
Assay type: cell-based
Settings: COLO 205, Colo205 cells, 72 hours compound exposure, MTS absorbance at 490 nm, read-out: IC50 (concentration of test compound required to inhibit proliferation of 50% of the cells)
Procedure, shortened: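 Colo205 cells seeded at 2000 cells/well in RPMI-1640 with 10% serum, exposed to compound for 72 h at 37 °C, 5% CO2, in a 5-point dose-response up to 10-20 μM. Viability read by MTS absorbance at 490 nm; IC50 from background-corrected percent inhibition by linear regression.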

Structure (SMILES)	IC50 [nM]
O=C(O)c1cn(-c2cccc(CN3CCCCC3)c2)c2c(OC(F)(F)F)c(N3CCN(c4ccc(F)cc4)CC3)c(F)cc2c1=O [Example 141, 6-fluoro-7-[4-(4-fluorophenyl)piperazin-1-yl]-4-oxo-1-[3-(piperidin-1-ylmethyl)phenyl]-8-(trifluoromethoxy)-1,4-dihydroquinoline-3-carboxylic acid]	500 to 2000
COc1c(N2CCN(c3ccccc3C#N)CC2)c(F)cc2c(=O)c(C(=O)O)cn(-c3ccc(CN(C)C)cc3)c12 [Example 95, 7-[4-(2-cyanophenyl)piperazin-1-yl]-1-{4-[(dimethylamino)methyl]phenyl}-6-fluoro-8-methoxy-4-oxo-1,4-dihydroquinoline-3-carboxylic acid]	500 to 2000
O=C(O)c1cn(-c2ccc(CNC3CCC[C@@H]3O)cc2)c2c(Cl)c(N3CCN(c4ccccn4)CC3)c(F)cc2c1=O (stereo in doubt) [Example 172, 8-chloro-6-fluoro-1{4-[(2-hydroxycyclopentylamino)-methyl]-phenyl}-4-oxo-7-(4-pyridin-2-yl-piperazine-1-yl)-1,4-dihydro-quinoline-3-carboxylic acid]	< 500
COc1c(N2CCN(c3ccc(Cl)c(Cl)c3)CC2)c(F)cc2c(=O)c(C(=O)O)cn(-c3ccc(CN4CCCC4)cc3)c12 [Example 86, 7-[4-(3,4-dichlorophenyl)piperazin-1-yl]-6-fluoro-8-methoxy-4-oxo-1-[4-(pyrrolidin-1-ylmethyl)phenyl]-1,4-dihydroquinoline-3-carboxylic acid]	500 to 2000
COc1c(N2CCN(c3ccc(C(C)=O)cc3)CC2)c(F)cc2c(=O)c(C(=O)O)cn(-c3ccc(CN4CCCC4)cc3)c12 [Example 78, 7-[4-(4-acetylphenyl)piperazin-1-yl]-6-fluoro-8-methoxy-4-oxo-1-[4-(pyrrolidin-1-ylmethyl)phenyl]-1,4-dihydroquinoline-3-carboxylic acid]	500 to 2000
CN(Cc1ccc(-n2cc(C(=O)O)c(=O)c3cc(F)c(N4CCN(c5ncccn5)CC4)c(Cl)c32)cc1)C1CCCCC1 [Example 62, 8-chloro-1-(4-{[cyclohexyl(methyl)amino]-methyl}phenyl)-6-fluoro-4-oxo-7-(4-pyrimidin-2-ylpiperazin-1-yl)-1,4-dihydroquinoline-3-carboxylic acid]	< 500
CCN(CC)Cc1ccc(-n2cc(C(=O)O)c(=O)c3cc(F)c(N4CCN(c5ccccc5[N+](=O)[O-])CC4)c(OC)c32)cc1 [Example 107, 1-{4-[(diethylamino)methyl]phenyl}-6-fluoro-8-methoxy-7-[4-(2-nitrophenyl)piperazin-1-yl]-4-oxo-1,4-dihydroquinoline-3-carboxylic acid]	500 to 2000
CN(C)Cc1ccc(-n2cc(C(=O)O)c(=O)c3cc(F)c(N4CCN(c5ncccn5)CC4)c(OC(F)(F)Cl)c32)cc1 [Example 157, 8-[chloro(difluoro)methoxy]-1-{4-[(dimethylamino)methyl]phenyl}-6-fluoro-4-oxo-7-(4-pyrimidin-2-ylpiperazin-1-yl)-1,4-dihydroquinoline-3-carboxylic acid]	500 to 2000
O=C(O)c1cn(-c2ccc(CN3CCCC3)cc2)c2c(OC(F)(F)F)c(N3CCN(c4ncccn4)CC3)c(F)cc2c1=O [Example 123, 6-fluoro-4-oxo-7-(4-pyrimidin-2-yl-piperazin-1-yl)-1-[4-(pyrrolidin-1-ylmethyl)phenyl]-8-(trifluoromethoxy)-1,4-dihydroquinoline-3-carboxylic acid]	< 500
N#Cc1cccnc1N1CCN(c2c(F)cc3c(=O)c(C(=O)O)cn(-c4ccc(CN5CCCC5)cc4)c3c2Cl)CC1 [Example 7, 8-chloro-7-[4-(3-cyanopyridin-2-yl)piperazin-1-yl]-6-fluoro-4-oxo-1-[4-(pyrrolidin-1-ylmethyl)phenyl]-1,4-dihydroquinoline-3-carboxylic acid]	< 500
O=C(O)c1cn(-c2cccc(CN3CCCCC3)c2)c2c(Cl)c(N3CCN(c4ncccn4)CC3)c(F)cc2c1=O [Example 66, 8-chloro-6-fluoro-4-oxo-1-[3-(piperidin-1-yl-methyl)phenyl]-7-(4-pyrimidin-2-ylpiperazin-1-yl)-1,4-dihydroquinoline-3-carboxylic acid]	2000 to 20000
COc1c(N2CCN(c3ccccc3[N+](=O)[O-])CC2)c(F)cc2c(=O)c(C(=O)O)cn(-c3ccc(CN(C)C)cc3)c12 [Example 104, 1-{4-[(dimethylamino)methyl]phenyl}-6-fluoro-8-methoxy-7-[4-(2-nitrophenyl)piperazin-1-yl]-4-oxo-1,4-dihydroquinoline-3-carboxylic acid]	2000 to 20000
CN(C)Cc1ccc(-n2cc(C(=O)O)c(=O)c3cc(F)c(N4CCN(c5ccccn5)CC4)c(OC(F)(F)Cl)c32)cc1 [Example 154, 8-[chloro(difluoro)methoxy]-1-{4-[(dimethylamino)methyl]phenyl}-6-fluoro-4-oxo-7-(4-pyridin-2-ylpiperazin-1-yl)-1,4-dihydroquinoline-3-carboxylic acid]	< 500
CCN(CC)Cc1ccc(-n2cc(C(=O)O)c(=O)c3cc(F)c(N4CCN(c5ccc(F)cc5)CC4)c(OC(F)(F)Cl)c32)cc1 [Example 163, 8-[chloro(difluoro)methoxy]-1-{4-[(diethylamino)methyl]phenyl}-6-fluoro-7-[4-(4-fluorophenyl)piperazin-1-yl]-4-oxo-1,4-dihydroquinoline-3-carboxylic acid]	< 500
N#Cc1ccccc1N1CCN(c2c(F)cc3c(=O)c(C(=O)O)cn(-c4ccc(CN5CCCC5)cc4F)c3c2Cl)CC1 [Example 39, 8-chloro-7-[4-(2-cyanophenyl)piperazin-1-yl]-6-fluoro-1-[2-fluoro-4-(pyrrolidin-1-ylmethyl)phenyl]-4-oxo-1,4-dihydroquinoline-3-carboxylic acid]	< 500
O=C(O)c1cn(-c2ccc(CNC3CC3)cc2)c2c(Cl)c(N3CCN(c4ccccn4)CC3)c(F)cc2c1=O [Example 59, 8-chloro-1-{4-[(cyclopropylamino)-methyl]phenyl}-6-fluoro-4-oxo-7-(4-pyridin-2-ylpiperazin-1-yl)-1,4-dihydroquinoline-3-carboxylic acid]	< 500
CN(C)Cc1ccc(-n2cc(C(=O)O)c(=O)c3cc(F)c(N4CCN(c5ncccc5C#N)CC4)c(OC(F)(F)Cl)c32)cc1 [Example 158, 8-[chloro(difluoro)methoxy]-7-[4-(3-cyanopyridin-2-yl)piperazin-1-yl]-1-{4-[(dimethylamino)methyl]phenyl}-6-fluoro-4-oxo-1,4-dihydroquinoline-3-carboxylic acid]	< 500
COc1c(N2CCN(c3ncccc3C#N)CC2)c(F)cc2c(=O)c(C(=O)O)cn(-c3ccc(CN4CCCC4)cc3)c12 [Example 79, 7-[4-(3-cyanopyridin-2-yl)piperazin-1-yl]-6-fluoro-8-methoxy-4-oxo-1-[4-(pyrrolidin-1-ylmethyl)phenyl]-1,4-dihydroquinoline-3-carboxylic acid]	< 500
O=C(O)c1cn(-c2ccc(CN3CCCC3)nc2)c2c(Cl)c(N3CCN(c4ncccn4)CC3)c(F)cc2c1=O [Example 33, 8-chloro-6-fluoro-4-oxo-7-(4-pyrimidin-2-ylpiperazin-1-yl)-1-[6-(pyrrolidin-1-ylmethyl)pyridin-3-yl]-1,4-dihydroquinoline-3-carboxylic acid]	2000 to 20000

Reference: US20070213339A1 (Bayer Pharmaceuticals Corporation, priority 2004, published 2007)
